Test results from patent publication US20080214537A1, “BRIDGED PHENANTHRIDINES” (CARA THERAPEUTICS, INC., priority 2007, published 2008).

Legend:
[1] = biological target: human CB1 receptor (hCB1) (Homo sapiens, UniProt P21554); assay: cAMP assay (LANCE TR-FRET) in CHO-K1 cells expressing hCB1; type: cell-based; details: activity on hCB1 represents inverse agonism; for Emax: CHO-K1, percent of range defined by CP55,940 (1 μM = 100%), read-out: hCB1 % Max Range; for EC50: CHO-K1 cells stably expressing hCB1, intracellular cAMP, NKH-477 prestimulated
Sequence of human CB1 receptor (hCB1) (P21554 whole entry): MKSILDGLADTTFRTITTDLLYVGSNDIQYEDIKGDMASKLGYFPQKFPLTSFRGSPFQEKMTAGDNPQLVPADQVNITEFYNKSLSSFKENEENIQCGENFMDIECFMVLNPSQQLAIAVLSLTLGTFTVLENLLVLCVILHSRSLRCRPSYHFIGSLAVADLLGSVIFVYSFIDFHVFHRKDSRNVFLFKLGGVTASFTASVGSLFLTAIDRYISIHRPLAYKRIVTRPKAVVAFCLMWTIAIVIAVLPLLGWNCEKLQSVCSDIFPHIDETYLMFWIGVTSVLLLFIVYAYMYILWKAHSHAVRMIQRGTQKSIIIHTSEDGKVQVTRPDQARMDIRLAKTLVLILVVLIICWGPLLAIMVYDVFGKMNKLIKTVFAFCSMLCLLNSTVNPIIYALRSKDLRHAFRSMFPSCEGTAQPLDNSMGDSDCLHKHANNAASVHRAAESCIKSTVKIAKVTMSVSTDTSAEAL
Experimental: (§1) The ability of compounds to act as agonists or inverse agonists at human CB2 and CB1 receptors (hCB2, hCB1, respectively) was determined by measuring changes in intracellular cAMP levels. Chinese Hamster Ovary (CHO-K1) cell lines stably expressing hCB2 (Genebank: X74328) or hCB1 (Genebank: X54937) were purchased from Euroscreen (Gosselies, Belgium).
(§2) Cell lines were grown in suspension in EX-CELL 302 CHO Serum-free medium (Sigma, catalog #14324C) supplemented with 1% Fetal Bovine Serum, glutamine and with or without non-essential amino-acids under 0.4 mg/mL G418 selection.
(§3) Receptor mediated responses were determined by measuring changes in intracellular cAMP using LANCE cAMP detection kit (catalog #AD0264, PerkinElmer, Wellesley, Mass.) based on time-resolved fluorescence resonance energy transfer (TR-FRET). Changes in cAMP were determined in cells pre-incubated with IBMX (isobutyl methylxanthine) and prestimulated with NKH-477 (a water soluble forskolin derivative, catalog #1603, Tocris, Ellisville, Mo.) to increase basal cAMP levels as detailed below.
(§4) On the day of the experiment, cells were spun at low speed for 5 min at room temperature. The supernatant was removed and cells were resuspended in stimulation buffer (Hanks Buffered Salt Solution/5 mM HEPES, containing 0.5 mM IBMX (catalog #17018, Sigma) and 0.02% BSA (PerkinElmer, catalog #CR84-100)). Cell clumps were removed by filtering through cell strainer 40 μm (BD Falcon, Discovery Labware, Bedford, Mass.) and diluted to 2×10^5 cells/mL. Antibody supplied with the LANCE cAMP immunoassay kit was then added according to the manufacturer's instructions. An aliquot of cells was taken for un-induced controls. To the remaining cells was added NKH-477 (a water soluble forskolin derivative, Tocris catalog #1603) to a final concentration of 2-8 μM. Cells were then incubated for either 25 or 30 min at room temperature prior to adding to Proxiplates containing test compounds (final DMSO concentration was less than 0.5%) with a Multidrop bulk dispenser, followed by a sixty minute incubation at room temperature. The response was stopped by addition of the detection mix supplied with the LANCE kit.
(§5) The reagents were allowed to equilibrate for three hours prior to reading on an Envision multi-mode detector (PerkinElmer). TR-FRET was measured using a 330-380 nm excitation filter, 615 and 665 nm emission filters, dichroic mirror 380 nm and Z=1 mm.
(§6) Cyclic AMP concentrations in each well were back-calculated from a cAMP standard curve run concurrently during each assay. Each plate contained 16 wells of forskolin stimulated cells and 16 wells of forskolin plus CP55,940-treated. CP55,940-treated cells were treated with CP55,940 (Tocris catalog #0949) at 1 μM and the maximal response was used as the full range (100%) standard. WIN55,212 (Tocris catalog #1038) was used as an internal standard. Concentrations of cAMP were expressed as a percent of the difference of these two groups of wells. Concentration-response data including EC50 (the concentration of compound producing 50% of the maximal response) and intrinsic activity (the percent maximal activation compared to full activation by CP55,940) were determined using a four-parameter non-linear regression algorithm (Xlfit equation 251, IDBS).

[2] = Body temperature (rectal probe) in writhing assay mice; type: in vivo; details: 10 mg/kg subcutaneous; thirty minutes after dosing
Experimental: Male ICR mice, 20-40 grams in weight, served as experimental subjects. To determine the activity and potency of test compounds, mice were weighed and then injected with different doses of the compound solution or vehicle subcutaneously in the back of the neck and then returned to their home cages. Thirty minutes later, body temperatures were obtained using a digital rectal probe and then mice were immediately injected with 10 ml/kg of a 0.6% (v/v) acetic acid solution into the right lower quadrant of the abdomen. Mice were then placed in individual observation chambers (usually a 4000 ml beaker) with a fine layer of bedding at the bottom and the recording of the number of writhes begun immediately. The number of writhes was counted over a 15-min period starting from the time of the acetic acid injection. Raw data were analyzed using a one-way ANOVA followed by Dunnett's post-tests. For dose-response analysis, raw data were converted to % maximum possible effect (% MPE) using the formula: […]

[3] = test system: Male ICR mice; assay: Acetic acid-induced writhing assay in mice; type: in vivo; details: 10 mg/kg subcutaneous, 30 min before 0.6% acetic acid i.p.; writhes counted over 15 min
Description: 12: 525-562; Ramabadran and Bansinath (1986) Pharm. Res. 3: 263-270]. Intraperitoneal administration of dilute acetic acid solution causes a writhing behavior in mice. A writhe is defined as a contraction of the abdominal muscles accompanied by an extension of the forelimbs and elongation of the body. The number of writhes observed in the presence and absence of test compounds is counted to determine the analgesic activity of the compounds.
Male ICR mice, 20-40 grams in weight, served as experimental subjects. To determine the activity and potency of test compounds, mice were weighed and then injected with different doses of the compound solution or vehicle subcutaneously in the back of the neck and then returned to their home cages. Thirty minutes later, body temperatures were obtained using a digital rectal probe and then mice were immediately injected with 10 ml/kg of a 0.6% (v/v) acetic acid solution into the right lower quadrant of the abdomen. Mice were then placed in individual observation chambers (usually a 4000 ml beaker) with a fine layer of bedding at the bottom and the recording of the number of writhes begun immediately. The number of writhes was counted over a 15-min period starting from the time of the acetic acid injection. Raw data were analyzed using a one-way ANOVA followed by Dunnett's post-tests. For dose-response analysis, raw data were converted to % maximum possible effect (% MPE) using the formula:
% MPE=((Wc−Wv)/(0−Wv))*100
where Wc is the number of writhes in compound-treated mice and Wv is the mean number of writhes in vehicle-treated mice. The dose which elicited 50% attenuation of hypersensitivity (ED50) was determined using linear regression analysis. (Tallarida & Murray, 1987).

[4] = biological target: human CB2 receptor (hCB2) (Homo sapiens, UniProt P34972); assay: cAMP assay (LANCE TR-FRET) in CHO-K1 cells expressing hCB2; type: cell-based; details: for Emax: CHO-K1, intrinsic activity: percent maximal activation compared to full activation by CP55,940 (1 μM = 100%), read-out: hCB2 % Max Range; for EC50: CHO-K1 cells stably expressing hCB2, intracellular cAMP, NKH-477 prestimulated, average of at least three replicates
Sequence of human CB2 receptor (hCB2) (P34972 whole entry): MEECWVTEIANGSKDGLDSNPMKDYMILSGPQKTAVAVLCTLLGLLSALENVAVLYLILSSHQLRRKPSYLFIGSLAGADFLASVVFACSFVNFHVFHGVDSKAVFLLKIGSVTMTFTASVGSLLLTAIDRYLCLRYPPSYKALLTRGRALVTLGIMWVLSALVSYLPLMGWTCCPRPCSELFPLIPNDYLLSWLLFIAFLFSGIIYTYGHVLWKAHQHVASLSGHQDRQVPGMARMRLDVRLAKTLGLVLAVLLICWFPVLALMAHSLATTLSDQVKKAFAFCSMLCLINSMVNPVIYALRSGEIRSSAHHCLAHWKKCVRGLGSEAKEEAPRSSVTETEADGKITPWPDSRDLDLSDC
Experimental: as §1, §2, §3, §4, §5
as §6, with “IDBS). Assays were performed with at least three replicates per compound and averaged results for the several compounds of the invention are shown in Table I.” for “IDBS).”

SMILES: O=S(=O)(c1ccc2c(c1)C1C3CCC(C3)C1C(c1ccccc1)N2)N1CCCCC1 (stereo not shown) [(3b), Bridged 6-phenyl-2-(piperidin-1-ylsulfonyl)-5,6,6a,7,8,9,10,10a-octahydrophenanthridine]
- Emax [1]: < 40%
- EC50 [1]: > 10000 nM
- Δ BODY TEMP. (° C.): observed reduction in body temperature [2]: 0.4 °C
- % MPE [3]: 12%
- Emax [4]: 101%
- EC50 [4]: 0.38 nM

SMILES: O=S(=O)(c1ccc2c(c1)C1C3CCC(C3)C1C(c1ccccc1)N2)N1CCOCC1 (stereo not shown) [(34), Bridged 4-(6-phenyl-5,6,6a,7,8,9,10,10a-octahydrophenanthridin-2-ylsulfonyl)morpholine]
- Emax [1]: < 40%
- EC50 [1]: > 10000 nM
- Δ BODY TEMP. (° C.): observed reduction in body temperature [2]: 0.1 °C
- % MPE [3]: 23%
- Emax [4]: 102%
- EC50 [4]: 0.56 nM

SMILES: CC(=O)NS(=O)(=O)c1ccc2c(c1)C1C3CCC(C3)C1C(c1ccccc1)N2 (stereo not shown) [(46), Bridged N-(6-phenyl-5,6,6a,7,8,9,10,10a-octahydrophenanthridin-2-ylsulfonyl)acetamide]
- Emax [1]: < 40%
- EC50 [1]: > 10000 nM
- Δ BODY TEMP. (° C.): observed reduction in body temperature [2]: 0.2 °C
- % MPE [3]: 41%
- Emax [4]: 96.9%
- EC50 [4]: 36.7 nM

SMILES: CN(C)S(=O)(=O)c1ccc2c(c1)C1CC=CC1C(c1ccccc1)N2 (stereo not shown) [(49), N,N-dimethyl-4-phenyl-3a,4,5,9b-tetrahydro-1H-cyclopenta[c]quinoline-8-sulfonamide]
- Emax [1]: 61.8%
- EC50 [1]: 1040 nM
- Emax [4]: < 40%
- EC50 [4]: > 10000 nM

SMILES: CC(C)S(=O)(=O)N1c2ccc(S(=O)(=O)N(C)C)cc2C2C3CCC(C3)C2C1c1ccccc1 (stereo not shown) [(50), Bridged 5-(isopropylsulfonyl)-N,N-dimethyl-6-phenyl-5,6,6a,7,8,9,10,10a-octahydrophenanthridine-2-sulfonamide]
- Emax [1]: < 40%
- EC50 [1]: > 10000 nM
- Emax [4]: 81.2%
- EC50 [4]: 1500 nM

SMILES: CC(C)S(=O)(=O)Nc1ccc2c(c1)C1C3CCC(C3)C1C(c1ccccc1)N2 (stereo not shown) [(51), Bridged N-(6-phenyl-5,6,6a,7,8,9,10,10a-octahydrophenanthridin-2-yl)propane-2-sulfonamide]
- Emax [1]: 100%
- EC50 [1]: 2210 nM
- Emax [4]: 96.8%
- EC50 [4]: 1.62 nM

SMILES: CS(=O)(=O)N(c1ccc2c(c1)C1C3CCC(C3)C1C(c1ccccc1)N2)S(C)(=O)=O (stereo not shown) [(52), Bridged N-(methylsulfonyl)-N-(6-phenyl-5,6,6a,7,8,9,10,10a-octahydrophenanthridin-2-yl)methanesulfonamide]
- Emax [1]: < 40%
- EC50 [1]: > 10000 nM
- Emax [4]: 102%
- EC50 [4]: 0.63 nM

SMILES: O=C(NCC1CC1)c1ccc2c(c1)C1C3CCC(C3)C1C(c1ccccc1)N2 (stereo not shown) [Compound (2d), Methylene bridged N-(cyclopropylmethyl)-6-phenyl-5,6,6a,7,8,9,10,10a-octahydrophenanthridine-2-carboxamide]
- Emax [1]: < 40%
- EC50 [1]: > 10000 nM
- Emax [4]: 84%
- EC50 [4]: 19 nM

SMILES: CCCCC(=O)Nc1ccc2c(c1)C1C3CCC(C3)C1C(c1ccccc1)N2 (stereo not shown) [Compound (4d), Bridged N-(6-phenyl-5,6,6a,7,8,9,10,10a-octahydrophenanthridin-2-yl)pentanamide]
- Emax [1]: < 40%
- EC50 [1]: > 10000 nM
- Emax [4]: 92%
- EC50 [4]: 6.9 nM

SMILES: CCCNC(=O)Nc1ccc2c(c1)C1C3CCC(C3)C1C(c1ccccc1)N2 (stereo not shown) [Compound (5d), Bridged 1-(6-phenyl-5,6,6a,7,8,9,10,10a-octahydrophenanthridin-2-yl)-3-propylurea]
- Emax [1]: 46%
- EC50 [1]: 2150 nM
- Emax [4]: 73%
- EC50 [4]: 289 nM
